The experiment concerns the target T1, OCT1 (organic cation transporter 1) (Homo sapiens, UniProt O15245).
T1 construct: gene SLC22A1
T1 sequence (O15245 1-554): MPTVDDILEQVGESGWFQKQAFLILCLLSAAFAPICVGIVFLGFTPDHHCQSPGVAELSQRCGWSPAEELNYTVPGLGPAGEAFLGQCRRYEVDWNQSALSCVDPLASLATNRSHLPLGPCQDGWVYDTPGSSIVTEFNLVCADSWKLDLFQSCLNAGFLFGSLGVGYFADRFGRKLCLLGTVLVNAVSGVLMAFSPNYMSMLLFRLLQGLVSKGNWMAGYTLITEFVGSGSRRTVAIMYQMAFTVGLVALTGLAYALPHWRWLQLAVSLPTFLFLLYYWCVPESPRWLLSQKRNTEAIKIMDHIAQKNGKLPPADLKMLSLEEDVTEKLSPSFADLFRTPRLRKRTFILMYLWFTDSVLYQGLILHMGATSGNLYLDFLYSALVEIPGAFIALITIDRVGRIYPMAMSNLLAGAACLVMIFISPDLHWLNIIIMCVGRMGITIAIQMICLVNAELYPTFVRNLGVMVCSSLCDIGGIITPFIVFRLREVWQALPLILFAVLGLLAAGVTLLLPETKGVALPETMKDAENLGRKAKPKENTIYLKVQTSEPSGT
Briefly: inhibition of metformin uptake in HEK293-Flp-In-OCT1 cells, […] min pre-incubation, UPLC-MS/MS. Format: cell-based.

The IC50 is the concentration needed to halve the response being measured. In the case of `O[C@@H](COc1cccc2ncccc12)CN1CCN([C@@H]2c3ccccc3[C@@H]3[C@H](c4ccccc42)C3(F)F)CC1` [zosuquidar], the IC50 worked out at 7.5 ± 3.7 µM.

The values above are taken from PMC12125102, “The “specific” P-glycoprotein inhibitor zosuquidar (LY335979) also weakly inhibits human organic cation transporters” (Naunyn-Schmiedeberg's Archives of Pharmacology, 2024).
